Here are results for 3 molecules from US9637453B2, “3-spirocyclic-6-hydroxamic acid tetralins as HDAC inhibitors” (Forma Therapeutics, Inc., priority 2015, dated 2017).

Experiment [1] addresses T1, Full length human recombinant HDAC6 (Homo sapiens, UniProt Q9UBN7).
T1 construct: Full length human recombinant HDAC6 and HDAC11 proteins were expressed in baculoviral system
T1 sequence (Q9UBN7 1-1215): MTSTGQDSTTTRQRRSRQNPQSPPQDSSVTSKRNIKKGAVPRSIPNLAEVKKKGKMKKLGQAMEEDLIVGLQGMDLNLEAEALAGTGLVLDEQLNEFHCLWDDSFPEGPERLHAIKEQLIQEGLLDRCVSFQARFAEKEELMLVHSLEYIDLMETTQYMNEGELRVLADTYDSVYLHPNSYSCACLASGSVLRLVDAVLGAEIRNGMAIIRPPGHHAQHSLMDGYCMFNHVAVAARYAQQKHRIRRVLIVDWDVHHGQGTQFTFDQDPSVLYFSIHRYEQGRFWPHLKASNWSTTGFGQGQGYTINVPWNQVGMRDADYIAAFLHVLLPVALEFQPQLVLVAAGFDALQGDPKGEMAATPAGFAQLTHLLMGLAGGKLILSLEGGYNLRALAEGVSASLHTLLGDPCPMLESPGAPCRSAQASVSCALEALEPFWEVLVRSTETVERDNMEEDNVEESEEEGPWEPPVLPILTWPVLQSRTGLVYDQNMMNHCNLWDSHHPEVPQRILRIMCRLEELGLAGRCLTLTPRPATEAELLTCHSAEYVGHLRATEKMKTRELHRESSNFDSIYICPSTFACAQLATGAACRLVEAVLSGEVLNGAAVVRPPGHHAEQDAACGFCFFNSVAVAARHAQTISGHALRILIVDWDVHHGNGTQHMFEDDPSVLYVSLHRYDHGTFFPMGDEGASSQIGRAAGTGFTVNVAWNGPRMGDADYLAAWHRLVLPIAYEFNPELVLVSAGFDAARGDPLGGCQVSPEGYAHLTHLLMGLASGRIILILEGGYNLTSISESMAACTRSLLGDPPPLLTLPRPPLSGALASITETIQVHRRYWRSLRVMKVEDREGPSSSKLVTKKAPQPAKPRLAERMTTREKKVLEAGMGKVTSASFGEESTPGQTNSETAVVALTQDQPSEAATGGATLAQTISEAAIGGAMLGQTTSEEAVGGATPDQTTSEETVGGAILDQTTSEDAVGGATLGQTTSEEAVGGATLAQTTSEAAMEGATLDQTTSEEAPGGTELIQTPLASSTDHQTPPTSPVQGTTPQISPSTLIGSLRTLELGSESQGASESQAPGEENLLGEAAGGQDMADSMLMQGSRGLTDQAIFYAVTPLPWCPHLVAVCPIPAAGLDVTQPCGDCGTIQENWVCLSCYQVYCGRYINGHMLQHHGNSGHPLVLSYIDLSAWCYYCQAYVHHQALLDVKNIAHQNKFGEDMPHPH
Briefly: In vitro histone deacetylase assay, enzymatic HDAC6 (electrophoretic mobility shift assay). Type of experiment: biochemical. Conditions: 1 nM HDAC6; 2 μM peptide substrate FAM-RHKK(Ac)—NH2; 25° C.; 12 concentrations; read-out: HDAC6 Activity Range (IC50). In outline:
(§1)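 Baculovirus-expressed full-length enzymes (HDAC6 1 nM, FAM-RHKK(Ac)-NH2; HDAC11 10 nM, FAM-RHKK(tri-fluor-Ac)-NH2), 2 μM substrate, HEPES pH 7.5, 25°C, 12-point 3× dilutions. Product/substrate separated by microfluidic mobility shift after SDS quench; IC50 from 4-parameter fit, reported as +/++/+++ bins.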
For orientation: In EMSA bound probe runs differently from free probe, usually more slowly.

The target in experiment [2] is T2, Full length human recombinant HDAC11 (Homo sapiens, UniProt Q96DB2).
T2 construct: Full length human recombinant HDAC6 and HDAC11 proteins were expressed in baculoviral system
T2 sequence (Q96DB2 1-347): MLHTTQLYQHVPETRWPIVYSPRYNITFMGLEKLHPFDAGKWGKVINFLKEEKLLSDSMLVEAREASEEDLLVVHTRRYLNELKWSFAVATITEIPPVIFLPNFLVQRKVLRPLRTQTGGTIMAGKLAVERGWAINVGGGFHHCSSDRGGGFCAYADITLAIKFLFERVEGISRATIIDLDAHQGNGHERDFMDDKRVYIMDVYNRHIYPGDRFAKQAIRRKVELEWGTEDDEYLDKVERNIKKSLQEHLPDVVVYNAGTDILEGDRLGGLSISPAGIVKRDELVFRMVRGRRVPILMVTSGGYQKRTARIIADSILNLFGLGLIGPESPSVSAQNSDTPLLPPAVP
Briefly: In vitro histone deacetylase assay, enzymatic HDAC11 (electrophoretic mobility shift assay). Type of experiment: biochemical. Conditions: 10 nM HDAC11; 2 μM peptide substrate FAM-RHKK(tri-fluor-Ac)—NH2; 25° C.; 12 concentrations; read-out: HDAC11 Activity Range (IC50). In outline: as §1

The term IC50 denotes the concentration that gives 50% inhibition. For `O=C(NO)c1ccc2c(c1)OC1(CC2)CCN(C(=O)C2CCCCC2)CC1` [II-5, 1′-(cyclohexanecarbonyl)-N-hydroxyspiro[chromane-2,4′-piperidine]-7-carboxamide], the IC50 is at most 100 nM in experiment [1] and 100 to 500 nM in experiment [2].

With `O=C(NO)c1ccc2c(c1)OC1(CC2)CCN(C2CCCCC2)CC1` [II-6, 1′-cyclohexyl-N-hydroxyspiro[chroman-2,4′-piperidine]-7-carboxamide], the 50% inhibitory concentration (IC50) was 100 to 500 nM in experiment [1] and at most 100 nM in experiment [2].

Regarding `COc1ccc(CN2CCC3(CCc4ccc(C(=O)NO)cc4O3)CC2)cc1` [II-7, N-hydroxy-1′-(4-methoxybenzyl)spiro[chromane-2,4′-piperidine]-7-carboxamide], the IC50 in experiment [1] and in experiment [2] was above 500 nM each time.
